The target of this assay is T1, IDH2-R140Q (Homo sapiens, UniProt P48735, R140Q).
T1 construct: expressed in transfected cells
T1 sequence (P48735 40-452 R140Q): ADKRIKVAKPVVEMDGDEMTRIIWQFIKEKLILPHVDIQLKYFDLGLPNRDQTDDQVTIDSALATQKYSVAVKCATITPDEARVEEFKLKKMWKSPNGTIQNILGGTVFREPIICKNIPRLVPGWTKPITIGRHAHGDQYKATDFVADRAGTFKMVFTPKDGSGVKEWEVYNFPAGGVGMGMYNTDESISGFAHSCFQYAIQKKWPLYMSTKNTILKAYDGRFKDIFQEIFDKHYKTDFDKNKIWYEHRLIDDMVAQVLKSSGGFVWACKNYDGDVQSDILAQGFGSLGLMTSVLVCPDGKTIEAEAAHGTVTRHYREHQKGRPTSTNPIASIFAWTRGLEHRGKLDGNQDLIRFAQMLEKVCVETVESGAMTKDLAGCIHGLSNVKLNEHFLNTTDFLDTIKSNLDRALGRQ
The assay can be described thus: Fluorescent determination of IDH2-R140Q cell activity (2-HG in U87MGR140Q cells). The settings on record: 72 hours incubation, read-out: IC50 (2-HG inhibition). It counts as cell-based. On the procedure: Enzyme reaction solution: 1 mM nicotinamide adenine dinucleotide (NAD), 0.6 ng/μL D-2-hydroxyglutarate dehydrogenase (D2HGDH), 0.8 U/mL lipoamidase dehydrogenase (Diaphorase) and 60 μM Resazurin in 40 mM Tris.HCl pH 8.8 assay buffer.
Standard curve stock solution: The standard of 2-HG sodium salt was serially diluted in serum-free MEM medium to make a standard curve stock solution.
100 μL of U87MGR140Q cells were seeded at a density of 6×10^4/mL per well in a 96-well plate a.
From each well of 96-well plate a, 50 μL of the culture supernatant was transferred to the corresponding well of 96-well plate b; at the same time, 50 μL of standard curve stocking solution was added to other wells of 96-well plate b. Then 10 μl of 360 mM hydrochloric acid was added to all the wells. After shaking and mixing, the plate was placed on ice for 10 minutes, and then 10 μl of 420 mM Tris-base was added. After shaking and mixing, the plate was placed on ice for additional 5 minutes. Then the plate was centrifuged at 2500 rpm for 10 minutes.
After centrifuging, from each well of 96-well plate b, 20 μL of the supernatant was transferred to 96-well plate c. An additional 80 μL of the enzyme reaction solution was added to each well and incubated at 25° C. for 90 minutes.
A standard curve of the fluorescence value vs. the corresponding 2-HG concentration was made, and the 2-HG concentration corresponding to each concentration point of the compound was calculated, then the inhibition ratio was calculated, and the data was analyzed using XLfit5 (ID Business Solutions Limited) software to obtain the IC50 value.
The inhibition ratio was calculated as follows: Inhibition Ratio (IH %)=(1-2-HG concentration of test compound treated cells/2-HG concentration of control cells)×100%.
Regarding `[2H]C1(O)CCCC(c2nc(NC(C)C)nc(N[C@H](C)C(F)(F)F)n2)=C1F` (mixture of isomers) [Compound 23], the IC50 (as a rule, the concentration that inhibits the measured activity by half) stood at 192 nM.
With `[2H]C1(O)CCCC(c2nc(N[C@H](C)C(F)(F)F)nc(NC([2H])(C([2H])([2H])[2H])C([2H])([2H])[2H])n2)=C1F` (mixture of isomers) [Compound 29], the IC50 was 177 nM.
For `[2H]C1(O)CCCC(c2nc(N[C@@H](C)C(F)(F)F)nc(NC([2H])(C([2H])([2H])[2H])C([2H])([2H])[2H])n2)=C1F` (mixture of isomers) [Compound 30], the IC50 was 228 nM.
For `CC(C)Nc1nc(N[C@H](C)C(F)(F)F)nc(C2=CC(F)CCC2)n1` (mixture of isomers) [Compound 36], the IC50 worked out at 181 nM.
In the case of `CC(C)Nc1nc(N[C@H](C)C(F)(F)F)nc(C2=CCCC(F)C2)n1` (mixture of isomers) [Compound 37], the IC50 amounted to 1910 nM.
For the compound `CC(C)Nc1nc(N[C@H](C)C(F)(F)F)nc(C2=CCC(F)CC2)n1` (mixture of isomers) [Compound 38], the half-inhibitory concentration (IC50) came to 1620 nM.
On to `[2H]C1([2H])CCC(c2nc(NC3CC(F)(F)C3)nc(N[C@@H](C)C(F)(F)F)n2)=C(F)C1([2H])O` (mixture of isomers) [Compound 90], for which the IC50 turned out to be 65 nM.
With `CC(C)Nc1nc(N[C@H](C)C(F)(F)F)nc(C2=CCCC(O)C2)n1` (mixture of isomers) [Compound 144, 3-(4-(Isopropylamino)-6-(((R)-1,1,1-trifluoropropan-2-yl)amino)-1,3,5-triazin-2-yl)cyclohex-3-en-1-ol], the IC50 was 2750 nM.
As for `C[C@@H](Nc1nc(NCC(F)(F)F)nc(C2=CC(O)CCC2)n1)C(F)(F)F` (mixture of isomers) [Compound 154], the IC50 is 202 nM.
As to `C[C@@H](Nc1nc(NC2(C)CC2)nc(C2=CC(O)CCC2)n1)C(F)(F)F` (mixture of isomers) [Compound 156], the IC50 is 657 nM.
On to `C[C@@H](Nc1nc(NC2CC3(C2)CC(F)(F)C3)nc(C2=C(F)C(O)CCC2)n1)C(F)(F)F` (mixture of isomers) [Compound 160], for which the concentration for half-maximal inhibition (IC50) was 180 nM.
Take `C[C@@H](Nc1nc(NC2CC2)nc(C2=C(F)C(O)CCC2)n1)C(F)(F)F` (mixture of isomers) [Compound 162]: the IC50 is 177 nM.
The figure for `CC[C@@H](C)Nc1nc(N[C@H](C)C(F)(F)F)nc(C2=C(F)C(O)CCC2)n1` (mixture of isomers) [Compound 164] is 176 nM; for `CC[C@H](C)Nc1nc(N[C@H](C)C(F)(F)F)nc(C2=C(F)C(O)CCC2)n1` (mixture of isomers) [Compound 165] it is 198 nM; for `C[C@@H](Nc1nc(NOC(C)(C)C)nc(C2=C(F)C(O)CCC2)n1)C(F)(F)F` (mixture of isomers) [Compound 172] it is 344 nM.
In the case of `C[C@@H](Nc1nc(NCC(F)(F)F)nc(C2=C(F)C(O)C(F)(F)CC2)n1)C(F)(F)F` (mixture of isomers) [Compound 208], the IC50 came to 102 nM.
In the case of `CCCNc1nc(N[C@H](C)C(F)(F)F)nc(C2=C(F)C(O)C(F)(F)CC2)n1` (mixture of isomers) [Compound 248], the IC50 came out at 93 nM.
Consider `C[C@@H](Nc1nc(NC2CCCC2)nc(C2=C(F)C(O)CCC2)n1)C(F)(F)F` (mixture of isomers) [Compound 10], for which the IC50 came out at 113 nM.
Turning to `CC(C)CNc1nc(N[C@H](C)C(F)(F)F)nc(C2=C(F)C(O)CCC2)n1` (mixture of isomers) [Compound 12], the IC50 came to 199 nM.
The figure for `C[C@@H](Nc1nc(N[C@@H]2C[C@@H]2F)nc(C2=C(F)C(O)CCC2)n1)C(F)(F)F` (mixture of isomers) [Compound 16] is 326 nM; for `CC(C)Nc1nc(N[C@H](C)C(F)(F)F)nc(C2=C(Cl)C(O)CCC2)n1` (mixture of isomers) [Compound 17] it is 1620 nM.
For the compound `CC(C)Nc1nc(N[C@H](C)C(F)(F)F)nc(C2=C(F)C(F)CCC2)n1` (mixture of isomers) [Compound 35, 6-(2,3-Difluorocyclohex-1-en-1-yl)-N^2-isopropyl-N^4-((R)-1,1,1-trifluoropropan-2-yl)-1,3,5-triazine-2,4-diamine], the IC50 was determined as 591 nM.
Turning to `C[C@@H](Nc1nc(NC2CC23CC3)nc(C2=C(F)C(O)CCC2)n1)C(F)(F)F` (mixture of isomers) [Compound 42], the IC50 is 152 nM.
The figure for `[2H]C1([2H])CCC(c2nc(NC(C)C)nc(NC3CC(F)(F)C3)n2)=C(F)C1([2H])O` (racemic) [Compound 92] is 143 nM.
The result for `C[C@@H](Nc1nc(NC2CC2)nc(C2=CC(O)CCC2)n1)C(F)(F)F` (mixture of isomers) [Compound 129] reads 171 nM.
For the compound `C[C@@H](Nc1nc(NCC(C)(C)O)nc(C2=CC(O)CCC2)n1)C(F)(F)F` (mixture of isomers) [Compound 131], the IC50 was 2800 nM.
In the case of `CCCNc1nc(N[C@H](C)C(F)(F)F)nc(C2=CC(O)CCC2)n1` (mixture of isomers) [Compound 133], the IC50 was 174 nM.
`CCNc1nc(N[C@H](C)C(F)(F)F)nc(C2=CC(O)CCC2)n1` (mixture of isomers) [Compound 135]: the IC50 worked out at 336 nM.
The result for `CC(C)C(=O)Nc1nc(N[C@H](C)C(F)(F)F)nc(C2=CC(O)CCC2)n1` (mixture of isomers) [Compound 137] reads 1540 nM; that for `COC1C=C(c2nc(N[C@H](C)C(F)(F)F)nc(N[C@H](C)C(F)(F)F)n2)CCC1` (mixture of isomers) [Compound 140, 6-(3-Methoxycyclohex-1-en-1-yl)-N^2,N^4-bis((R)-1,1,1-trifluoropropan-2-yl)-1,3,5-triazine-2,4-diamine], 2390 nM.
Consider `C[C@@H](Nc1nc(NC2CCC(F)(F)C2)nc(C2=CC(O)CCC2)n1)C(F)(F)F` (mixture of isomers) [Compound 176], for which the IC50 worked out at 612 nM.
Turning to `CC(CO)Nc1nc(N[C@H](C)C(F)(F)F)nc(C2=CC(O)CCC2)n1` (mixture of isomers) [Compound 184], the IC50 amounted to 3780 nM.
The result for `[2H]C1(O)CCCCC(c2nc(NC3CC(F)(F)C3)nc(NC3CC(F)(F)C3)n2)=C1F` (stereo not shown) [Compound 22] reads 336 nM; that for `CC(C)Nc1nc(NC(C)C)nc(C2=C(F)C(O)CCC2)n1` (stereo not shown) [Compound 25], 665 nM.
The result for `OC1CCCC(c2nc(NC3CC3)nc(NC3CC(F)(F)C3)n2)=C1F` (stereo not shown) [Compound 27] reads 148 nM; that for `CC(C)Nc1nc(NC2CC(F)(F)C2)nc(C2=C(F)C(O)CCC2)n1` (stereo not shown) [Compound 28], 123 nM.
For `C[C@H](CF)Nc1nc(NC2CC(F)(F)C2)nc(C2=C(F)C(O)CCC2)n1` (stereo partly shown) [Compound 43], the concentration for half-maximal inhibition (IC50) amounted to 328 nM.
The figure for `C[C@@H](Nc1nc(Nc2ccn3ccnc3c2)nc(C2=C(F)C(O)CCC2)n1)C(F)(F)F` (stereo partly shown) [Compound 44] is 3150 nM; for `OC1CCCC(c2nc(NC3CC3)nc(NC3CC(F)(F)C3)n2)=C1F` (stereo not shown) [Compound 49] it is 210 nM; for `CC1CC1Nc1nc(NC2CC(F)(F)C2)nc(C2=C(F)C(O)CCC2)n1` (stereo not shown) [Compound 50] it is 72 nM.
As to `[2H]C([2H])([2H])C([2H])(Nc1nc(N[C@@H](C)C(F)(F)F)nc(C2=C(F)C(O)CCC2)n1)C([2H])([2H])[2H]` (stereo partly shown) [Compound 53], the IC50 is 131 nM.
As to `[2H]C([2H])([2H])C([2H])(Nc1nc(NC2CC(F)(F)C2)nc(C2=C(F)C(O)CCC2)n1)C([2H])([2H])[2H]` (stereo not shown) [Compound 55], the IC50 came out at 103 nM.
Consider `[2H]C1([2H])CCC(c2nc(NC(C)C)nc(NC3CC(F)(F)C3)n2)=C(F)C1O` (stereo not shown) [Compound 56], for which the IC50 worked out at 93 nM.

The values above are taken from patent US12234211B2, “Cycloolefin substituted heteroaromatic compounds and their use” (HUTCHISON MEDIPHARMA LIMITED, priority 2017, dated 2025).
